What all share (type): cell-based
Series [1] deals with Acinetobacter baumannii (ATCC 1794). Description: MIC broth microdilution, A. baumannii 1794. The following applies: Table 1A; in µM. As for the experimental part: (§1) The minimum inhibitory concentration (MIC) for each tested compound was determined by the broth microdilution method as recommended by the Clinical and Laboratory Standards Institute (CLSI). In a 96-well plate, eleven two-fold serial dilutions of each compound were made in a final volume of 100 μL Luria Broth. Each well was inoculated with ˜10^5 bacterial cells at the initial time of incubation, prepared from a fresh log phase culture (OD600 of 0.5 to 1.0 depending on bacterial strain). The MIC was defined as the lowest concentration of compound that prevented bacterial growth after incubating 16 to 18 hours at 37° C. (MIC values were supported by spectrophotometric readings at OD600). DMSO served as our vehicle and negative control in each microdilution MIC assay. DMSO was serially diluted with a top concentration of 1% v/v.
as §1, with “for each compound was” for “for each tested compound was”, “Standards Institute (CLSI).^6 In a” for “Standards Institute (CLSI). In a”, “concentration of test compound that” for “concentration of compound that”, “37° C. The concentration range tested for each compound during this study was 0.10 to 100 μM. DMSO served” for “37° C. (MIC values were supported by spectrophotometric readings at OD600). DMSO served”, “1% v/v. All MIC values were obtained from a minimum of three independent experiments.” for “1% v/v.”
(In broth dilution the organism is exposed to a series of concentrations in liquid medium.)

The subject of series [2] is methicillin-resistant Staphylococcus epidermidis (MRSE strain ATCC 35984). In words: MIC broth microdilution, MRSE 35984. The following applies: Table 1A. As for the experimental part:
as §1
as §1, with “for each compound was” for “for each tested compound was”, “Standards Institute (CLSI).^6 In a” for “Standards Institute (CLSI). In a”, “concentration of test compound that” for “concentration of compound that”, “37° C. The concentration range tested for each compound during this study was 0.10 to 100 μM. DMSO served” for “37° C. (MIC values were supported by spectrophotometric readings at OD600). DMSO served”, “1% v/v. All MIC values were obtained from a minimum of three independent experiments.” for “1% v/v.”

Series [3] relates to human red blood cells (hRBC). Description: Hemolysis of red blood cells. The method, then: The washing was repeated three times with the buffer. In a 96-well plate, test compounds were added to the buffer from DMSO stocks. […] The plate was then incubated for 1 hour at 37° C. After incubation, the plate was centrifuged for 5 minutes at 3,500 rpm. Then 80 μL of the supernatant was transferred to another 96-well plate and the optical density (OD) was read at 405 nm. DMSO served as our negative control (0% hemolysis) while Triton X served as our positive control (100% hemolysis). […] All reported data correspond to three independent experiments. Ten-point dose-response curves were generated in 96-well plates to determine 50% hemolysis (HC50 values) of red blood cells.
The washing was repeated three times with the buffer. In 96-well plate, the test compounds were added to the buffer. Then 50 μL of 2% of hRBCs in the buffer were added to the test plate to make the final concentrations ranging from 0.2 to 200 μM of each test compound. The plate was then incubated for 1 hour at 37° C. After incubation, the plate was centrifuged for 5 minutes at 3500 rpm and then 80 μL of the supernatant was transferred to another 96-well plate and the Optical Density (OD) was read at 405 nm. DMSO served as our negative control (0% haemolysis) and Triton X served as our positive control (100% haemolysis). The HC50 (concentration of test compound required to lyse red blood cells by 50%) was calculated by plotting the dose-response curve (not shown) with Graphpad Prism 6.0. All data were obtained from three independent haemolysis experiments.

Series [4] has as its system vancomycin-resistant Enterococcus faecium (VRE strain ATCC 700221). In words: MIC broth microdilution, VRE 700221. The following applies: Table 1A. As for the experimental part: as §1
as §1, with “for each compound was” for “for each tested compound was”, “Standards Institute (CLSI).^6 In a” for “Standards Institute (CLSI). In a”, “concentration of test compound that” for “concentration of compound that”, “37° C. The concentration range tested for each compound during this study was 0.10 to 100 μM. DMSO served” for “37° C. (MIC values were supported by spectrophotometric readings at OD600). DMSO served”, “1% v/v. All MIC values were obtained from a minimum of three independent experiments.” for “1% v/v.”

Series [5] has as its system methicillin-resistant Staphylococcus aureus MRSA-2 (clinical isolate). Description: MIC broth microdilution, MRSA-2. The following applies: Table 1A. As for the experimental part: as §1
as §1, with “for each compound was” for “for each tested compound was”, “Standards Institute (CLSI).^6 In a” for “Standards Institute (CLSI). In a”, “concentration of test compound that” for “concentration of compound that”, “37° C. The concentration range tested for each compound during this study was 0.10 to 100 μM. DMSO served” for “37° C. (MIC values were supported by spectrophotometric readings at OD600). DMSO served”, “1% v/v. All MIC values were obtained from a minimum of three independent experiments.” for “1% v/v.”

Series [6] deals with Pseudomonas aeruginosa (PAO1). In words: MIC broth microdilution, PAO1. The following applies: Table 1A. As for the experimental part:
as §1
as §1, with “for each compound was” for “for each tested compound was”, “Standards Institute (CLSI).^6 In a” for “Standards Institute (CLSI). In a”, “concentration of test compound that” for “concentration of compound that”, “37° C. The concentration range tested for each compound during this study was 0.10 to 100 μM. DMSO served” for “37° C. (MIC values were supported by spectrophotometric readings at OD600). DMSO served”, “1% v/v. All MIC values were obtained from a minimum of three independent experiments.” for “1% v/v.”

We go through two compounds from patent US11419335B2, “N-arylated analogues and uses thereof” (University of Florida Research Foundation, Incorporated, priority 2016, dated 2022).

The HC50 is the concentration giving 50% haemolysis. A lower HC50 goes with stronger haemolysis.

The structures appear in SMILES notation.

With `CCCCCCCCCCCCCCCCn1cc[n+](Cc2ccccc2C[n+]2ccn(CCCCCCCCCCCCCCCC)c2C)c1C` [AB-3-35], the “MIC A. baumannii 1794” value in series [1] is above 100. The same compound gave an MIC S. epidermidis MRSE 35984 in series [2] above 100 µM. For the same compound, the HC50 in series [3] turned out to be 34.5 µM. Besides, the MIC E. faecium VRE 700221 in series [4] is above 100 µM. The same compound returned an MIC MRSA-2 in series [5] above 100 µM. In series [6], the MIC PAO1 was above 100 µM.
In the case of `CCCCCCCCCCCCCCCCn1cc[n+](-c2ccc(C(F)(F)F)cc2)c1C.[Br-]` [Compound 2], in series [3], the “RBC HC50” value came out at 13.4 µM and the hemolytic activity result is “potent hemolytic activities”.
